Results as given in the supplement of paper PMC10307832.

How the values were obtained:
Assay in all cases: relative viability (nuclei count vs DMSO), 5 days (fraction); higher = more cells survive
Tozasertib + Pemetrexed = compound: Cc1cc(Nc2cc(N3CCN(C)CC3)nc(Sc3ccc(NC(=O)C4CC4)cc3)n2)n[nH]1 [Tozasertib] + Nc1nc2[nH]cc(CCc3ccc(C(=O)N[C@@H](CCC(=O)O)C(=O)O)cc3)c2c(=O)[nH]1 [Pemetrexed] (partner 0.2 µM)
Procedure, shortened: (§1)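 Values are medians from duplicate plates. Each reflects relative viability, defined as the nuclei count of treated wells over that of vehicle wells. Lung cancer cell lines in 1536-well plates were pin-tool dosed one day after seeding with one drug alone or with a fixed anchor-drug dose plus five library-drug doses (not always all listed) in √10 steps, then fixed, stained and imaged at 4× after 5 days.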

Tozasertib + Navitoclax = compound: Cc1cc(Nc2cc(N3CCN(C)CC3)nc(Sc3ccc(NC(=O)C4CC4)cc3)n2)n[nH]1 [Tozasertib] + CC1(C)CCC(c2ccc(Cl)cc2)=C(CN2CCN(c3ccc(C(=O)NS(=O)(=O)c4ccc(N[C@H](CCN5CCOCC5)CSc5ccccc5)c(S(=O)(=O)C(F)(F)F)c4)cc3)CC2)C1 [Navitoclax] (partner 0.5 µM)
Procedure, shortened: as §1

Tozasertib + AZD7762 = compound: Cc1cc(Nc2cc(N3CCN(C)CC3)nc(Sc3ccc(NC(=O)C4CC4)cc3)n2)n[nH]1 [Tozasertib] + NC(=O)Nc1cc(-c2cccc(F)c2)sc1C(=O)N[C@H]1CCCNC1 [AZD7762] (partner 0.2 µM)
Procedure, shortened: as §1

Tozasertib + Bortezomib = compound: Cc1cc(Nc2cc(N3CCN(C)CC3)nc(Sc3ccc(NC(=O)C4CC4)cc3)n2)n[nH]1 [Tozasertib] + CC(C)C[C@H](NC(=O)[C@H](Cc1ccccc1)NC(=O)c1cnccn1)B(O)O [Bortezomib] (partner 0.002 µM)
Procedure, shortened: as §1

Tozasertib + Phenformin = compound: Cc1cc(Nc2cc(N3CCN(C)CC3)nc(Sc3ccc(NC(=O)C4CC4)cc3)n2)n[nH]1 [Tozasertib] + N=C(N)NC(=N)NCCc1ccccc1 [Phenformin] (partner 250 µM)
Procedure, shortened: as §1

Cell Line | relative viability (Tozasertib + Pemetrexed; first compound 0.004 µM) | relative viability (Tozasertib + Pemetrexed; first compound 0.01265 µM) | relative viability (Tozasertib + Pemetrexed; first compound 0.04 µM) | relative viability (Tozasertib + Pemetrexed; first compound 0.1265 µM) | relative viability (Tozasertib + Navitoclax; first compound 0.004 µM) | relative viability (Tozasertib + Navitoclax; first compound 0.01265 µM) | relative viability (Tozasertib + Navitoclax; first compound 0.04 µM) | relative viability (Tozasertib + Navitoclax; first compound 0.1265 µM) | relative viability (Tozasertib + AZD7762; first compound 0.004 µM) | relative viability (Tozasertib + AZD7762; first compound 0.01265 µM) | relative viability (Tozasertib + AZD7762; first compound 0.04 µM) | relative viability (Tozasertib + AZD7762; first compound 0.1265 µM) | relative viability (Tozasertib + Bortezomib; first compound 0.004 µM) | relative viability (Tozasertib + Bortezomib; first compound 0.01265 µM) | relative viability (Tozasertib + Bortezomib; first compound 0.04 µM) | relative viability (Tozasertib + Bortezomib; first compound 0.1265 µM) | relative viability (Tozasertib + Phenformin; first compound 0.004 µM) | relative viability (Tozasertib + Phenformin; first compound 0.01265 µM) | relative viability (Tozasertib + Phenformin; first compound 0.04 µM) | relative viability (Tozasertib + Phenformin; first compound 0.1265 µM)
PC-3 [JPC-3] | 1.08 | 1.01 | 1.21 | 0.919 | 0.579 | 0.699 | 0.935 | 0.756 | 0.789 | 0.734 | 0.774 | 0.684 | 0.787 | 0.829 | 0.881 | 0.757 | 0.377 | 0.49 | 0.536 | 0.469
PC-14 | – | 0.145 | 0.143 | 0.125 | 1.03 | – | 1.01 | – | 0.31 | 0.236 | 0.336 | 0.213 | 0.861 | 0.9 | 1.03 | 0.896 | 0.248 | 0.359 | 0.556 | 0.257
RERF-LC-KJ | 0.465 | 0.442 | 0.486 | 0.361 | 0.994 | 0.93 | 0.804 | 0.997 | 1.08 | – | 1.06 | 0.371 | 0.983 | 1.11 | 1.12 | 0.96 | 0.443 | 0.425 | 0.485 | 0.435
